# Reference: PubChem BioAssay (NCI)
# Where “and” joins values, the source holds several entries; their conditions need not be identical. Equal entries are not always repeated.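 Each compound was tested at five concentrations against cells in 96-well plates for 48 hours. At the GI50, growth is halved. TGI marks complete inhibition of growth.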
# Tests used:
# Assay in all cases: NCI tumour cell line growth inhibition, 48 h
# K-562 leukemia = test system: K-562 leukemia
# A549 NSCLC = test system: A549 NSCLC
# LOX IMVI melanoma = test system: LOX IMVI melanoma
# SK-OV-3 ovarian = test system: SK-OV-3 ovarian
# HCT-15 colon = test system: HCT-15 colon
# PC-3 prostate = test system: PC-3 prostate
# SK-MEL-5 melanoma = test system: SK-MEL-5 melanoma
# NCI-H460 lung = test system: NCI-H460 lung
# SF-539 CNS = test system: SF-539 CNS
# HT29 colon = test system: HT29 colon
Structure (SMILES),GI50 (K-562 leukemia),TGI (K-562 leukemia),GI50 (A549 NSCLC),TGI (A549 NSCLC),GI50 (LOX IMVI melanoma),TGI (LOX IMVI melanoma),GI50 (SK-OV-3 ovarian),TGI (SK-OV-3 ovarian),GI50 (HCT-15 colon),TGI (HCT-15 colon),GI50 (PC-3 prostate),TGI (PC-3 prostate),GI50 (SK-MEL-5 melanoma),TGI (SK-MEL-5 melanoma),GI50 (NCI-H460 lung),TGI (NCI-H460 lung),GI50 (SF-539 CNS),TGI (SF-539 CNS),GI50 (HT29 colon),TGI (HT29 colon)
Fc1ccc(-c2c(-c3ccncc3)nc3n2CCS3)cc1,> 25000 nM,> 25000 nM,> 25000 nM,> 25000 nM,> 25000 nM,> 25000 nM,> 25000 nM,> 25000 nM,> 25000 nM,> 25000 nM,> 25000 nM,> 25000 nM,> 25000 nM,> 25000 nM,> 25000 nM,> 25000 nM,> 25000 nM,> 25000 nM,> 25000 nM,> 25000 nM
CC(C)C[C@H](NC(=O)CNC(=O)c1cc(Cl)ccc1Cl)B(O)O,30 nM,1210 nM,46 nM,7600 nM,22.4 nM,59.7 nM,99.7 nM,8260 nM,27.2 nM,,48.6 nM,841 nM,< 13.6 nM,30.5 nM,83.1 nM,919 nM,< 12.5 nM,25.8 nM,< 15.5 nM,61.6 nM
COc1ccc2ncn(-c3cc(O[C@H](C)c4ccccc4C(F)(F)F)c(C(N)=O)s3)c2c1,109 nM,19400 nM,119 nM,4220 nM,105 nM,3560 nM,100 nM,5560 nM,134 nM,17200 nM,137 nM,15300 nM,169 nM,3550 nM,88 nM,2990 nM,131 nM,4070 nM,83.9 nM,3210 nM
O=C(O)c1cc(-c2ccc3cc4c(cc3c2)OCO4)nc2ccccc12,,> 100000 nM,,> 100000 nM,,> 100000 nM,,> 100000 nM,,> 100000 nM,,> 100000 nM,,> 100000 nM,,42700 nM,,> 100000 nM,,> 100000 nM
Cc1onc(-c2ccccc2)c1C(=O)N/N=C/c1cc(Cl)cc(Cl)c1O,4580 nM,55900 nM,5070 nM,> 100000 nM,2930 nM,32300 nM,7820 nM,50700 nM,2050 nM,> 100000 nM,3930 nM,32600 nM,3470 nM,21100 nM,3600 nM,> 100000 nM,2650 nM,11600 nM,8630 nM,58700 nM
COC(=O)[C@@H]1c2cc3c(c(O)c2[C@@H](OC2OC(C)C(OC)C(C)(OC)C2OC)C[C@]1(C)O)C(=O)c1c(O)cc2c(c1C3=O)O[C@H]1O[C@]2(C)[C@H](O)[C@@H](N(C)C)[C@@H]1O (stereo not given in full),,399 nM and 162 nM,,10300 nM,,152 nM and 1220 nM,,4940 nM,117 nM,1140 nM,,297 nM,,27.8 nM,,33.6 nM,,160 nM and 30.2 nM,,10100 nM
C[C@@H](Oc1cc(-n2cnc3ccc(OC4CCN(C)CC4)cc32)sc1C(N)=O)c1ccccc1Cl,10.2 nM,4900 nM,18.3 nM,3000 nM,14.6 nM,3690 nM,21.6 nM,2800 nM,82.7 nM,3550 nM,15.3 nM,6020 nM,30.6 nM,777 nM,12.6 nM,3190 nM,56.4 nM,2290 nM,8.29 nM,2770 nM
CC[C@H](C)[C@H](NC(=O)[C@H]1CCCCN1C)C(=O)N(C)[C@H](C[C@@H](OC(C)=O)c1cccc(C(=O)N[C@@H](Cc2ccccc2)C[C@H](C)C(=O)OC)n1)C(C)C,2.43 nM and 2.5 nM,> 25000 nM,37.7 nM and 9.74 nM,> 25000 nM,6.7 nM and 2.5 nM,> 25000 nM,3.08 nM and 3.14 nM,> 25000 nM,8.15 nM and 7.02 nM,9640 nM,3.2 nM and 2.5 nM,> 25000 nM,1.07 nM and 2.5 nM,38.2 nM and 33.3 nM,3.8 nM and 2.5 nM,> 25000 nM,5.92 nM,18.3 nM,1.82 nM and 2.5 nM,42.1 nM
COc1cc(/C=C2\CC3C4CC=C5C[C@@H](OC(C)=O)CC[C@]5(C)C4CC[C@]3(C)C2=O)ccc1OCCN1CCCCC1 (stereo not given in full),1230 nM,3310 nM,3420 nM,> 100000 nM,1260 nM,3310 nM,2750 nM,8500 nM,1290 nM,3250 nM,3510 nM,11200 nM,1710 nM,3080 nM,3020 nM,11600 nM,2020 nM,3820 nM,1880 nM,> 100000 nM
CN(Cc1ccccc1)Cn1ccnc1,,> 100000 nM,,> 100000 nM,,> 100000 nM,,> 100000 nM,,> 100000 nM,,> 100000 nM,,> 63400 nM,,> 80600 nM,,> 100000 nM,,> 100000 nM
